The target of assay [1] is T1, Cannabinoid receptor 2 (Homo sapiens, UniProt P34972). Description: Binding affinity to displace [3H]CP-55940 from cloned human CB2 receptor.
The nature of assay [2]: Ratio of the binding affinity towards CB1 receptor to that of CB2 receptor.
Assay [3] concerns the target T2, Cannabinoid receptor 1 (Rattus norvegicus, UniProt P20272). In words: Binding affinity to displace [3H]CP-55940 from CB1 receptor of rat brain.
The target of assay [4] is T1, Cannabinoid receptor 2. In words: Percent maximal effectiveness for stimulation of [35S]GTP-gamma-S, binding at CB2 receptor in presence of 3 uM CP-55940. Format: functional.
The target of assay [5] is T1, Cannabinoid receptor 2. Description: Effective concentration for stimulation of [35S]GTP-gamma-S, binding at CB2 receptor in presence of 3 uM CP-55940. The class given is functional. In general terms: GTPγS resists hydrolysis and so accumulates on activated G proteins.
Assay [6] deals with T2, Cannabinoid receptor 1. Description: Effective concentration for stimulation of [35S]GTP-gamma-S binding at CB1 receptor in presence of 10 uM WIN-55212-2. Format: functional.

SMILES strings stand for the structures.

T1 sequence (P34972 whole entry): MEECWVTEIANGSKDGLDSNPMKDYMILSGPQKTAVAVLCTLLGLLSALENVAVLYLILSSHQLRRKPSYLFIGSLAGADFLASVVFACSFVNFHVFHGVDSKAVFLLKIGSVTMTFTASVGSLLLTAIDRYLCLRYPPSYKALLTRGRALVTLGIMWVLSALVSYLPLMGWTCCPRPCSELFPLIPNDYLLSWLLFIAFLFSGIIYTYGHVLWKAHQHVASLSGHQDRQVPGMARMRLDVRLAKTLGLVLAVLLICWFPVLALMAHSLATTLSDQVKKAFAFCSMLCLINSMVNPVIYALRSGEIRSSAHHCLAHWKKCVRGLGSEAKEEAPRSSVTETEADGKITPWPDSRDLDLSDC
T2 sequence (P20272 whole entry): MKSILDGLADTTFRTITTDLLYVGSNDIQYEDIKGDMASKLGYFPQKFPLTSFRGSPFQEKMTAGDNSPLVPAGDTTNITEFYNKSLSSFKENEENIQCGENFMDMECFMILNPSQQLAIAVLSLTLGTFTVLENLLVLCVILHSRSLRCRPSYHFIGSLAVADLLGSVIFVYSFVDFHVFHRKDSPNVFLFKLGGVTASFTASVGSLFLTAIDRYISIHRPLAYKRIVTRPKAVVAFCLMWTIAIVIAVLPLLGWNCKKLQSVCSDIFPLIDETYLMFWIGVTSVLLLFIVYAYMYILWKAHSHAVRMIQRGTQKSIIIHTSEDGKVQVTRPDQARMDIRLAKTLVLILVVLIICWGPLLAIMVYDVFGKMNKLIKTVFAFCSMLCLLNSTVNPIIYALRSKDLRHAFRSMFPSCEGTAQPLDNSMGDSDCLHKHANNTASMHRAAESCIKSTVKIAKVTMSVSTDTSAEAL

Take `CCCCCn1cc(C(=O)Cc2ccc(Cl)cc2)c2ccccc21`: the Ki is 498 nM in assay [1] and 389 nM in assay [3]. Further, in assay [2], the Ratio was 0.78.
Turning to `CCCCCn1c(C)c(C(=O)Cc2ccccc2Br)c2ccccc21`, the Ki was 29 nM in assay [1] and 15 nM in assay [3]. For the same compound, in assay [2], the Ratio came to 0.52.
With `CCCCCn1cc(C(=O)Cc2ccc(C)cc2)c2ccccc21`, the Ki in assay [1] was found to be 570 nM; in assay [3], 179 nM. In addition, the Ratio in assay [2] came out at 0.31.
As to `CCCCCn1c(C)c(C(=O)Cc2ccccc2Cl)c2ccccc21`, the Ki in assay [1] was 25 nM; in assay [3], 13 nM. In addition, the Ratio in assay [2] came to 0.52.
For the compound `CCCCCn1cc(C(=O)Cc2ccccc2C)c2ccccc21`, the results for the inhibitory constant (Ki) in assay [1] and in assay [3] were 146 nM and 29 nM, respectively. Also, the Emax in assay [4] worked out at 47%. Further, the EC50 amounted to 8.3 nM in assay [5] and 29 nM in assay [6]. For the same compound, the Ratio in assay [2] worked out at 0.2.
Take `CCCCCn1c(C)c(C(=O)Cc2cccc(Cl)c2)c2ccccc21`: the Ki worked out at 138 nM in assay [1] and 117 nM in assay [3]. Further, the Ratio in assay [2] was found to be 0.85.
On to `CCCCCn1c(C)c(C(=O)Cc2ccccc2F)c2ccccc21`, for which the Ki in assay [1] was 76 nM; in assay [3], 39 nM. In addition, the Ratio in assay [2] came out at 0.51.
Taken in the same sequence, the figures for `CCCCCn1c(C)c(C(=O)Cc2cccc(OC)c2)c2ccccc21` were 84 nM, 62 nM and 0.74.
Regarding `CCCCCn1cc(C(=O)Cc2ccc(F)cc2)c2ccccc21`, the results for the Ki in assay [1] and in assay [3] were 365 nM and 422 nM, respectively. Also, the Ratio in assay [2] came out at 1.2.
As to `CCCCCn1cc(C(=O)Cc2cccc(Cl)c2)c2ccccc21`, the results for the Ki in assay [1] and in assay [3] were 106 nM and 38 nM, respectively. Besides, the Ratio in assay [2] was found to be 0.36.
`CCCCCn1c(C)c(C(=O)Cc2cccc(F)c2)c2ccccc21`: the values for the Ki in assay [1] and in assay [3] were 182 nM and 430 nM, respectively. For the same compound, the Ratio in assay [2] worked out at 2.4.
Turning to `CCCCCn1c(C)c(C(=O)Cc2ccc(F)cc2)c2ccccc21`, the Ki in assay [1] stood at 781 nM; in assay [3], 2860 nM. For the same compound, in assay [2], the Ratio is 3.7.
`CCCCCn1cc(C(=O)Cc2cccc(F)c2)c2ccccc21`: the Ki was determined as 91 nM in assay [1] and 72 nM in assay [3]. Besides, the Ratio in assay [2] was found to be 0.79.
Turning to `CCCCCn1c(C)c(C(=O)Cc2ccccc2OC)c2ccccc21`, the values for the Ki in assay [1] and in assay [3] were 82 nM and 25 nM, respectively. In assay [2], the Ratio amounted to 0.3.
On to `CCCCCn1c(C)c(C(=O)Cc2ccccc2)c2ccccc21`, for which the Ki in assay [1] came to 180 nM; in assay [3], 124 nM. Further, the Ratio in assay [2] was determined as 0.69.
`CCCCCn1c(C)c(C(=O)Cc2ccc(Cl)cc2)c2ccccc21`: the Ki in assay [1] was 3720 nM; in assay [3] it was 1600 nM. Besides, the Ratio in assay [2] was determined as 0.43.
As to `CCCCCn1cc(C(=O)Cc2ccccc2Cl)c2ccccc21`, the Ki in assay [1] came out at 7 nM; in assay [3], 8 nM. For the same compound, the Ratio in assay [2] came to 1.1.
Taken in the same sequence, the figures for `CCCCCn1cc(C(=O)Cc2ccccc2OC)c2ccccc21` were 33 nM, 11 nM and 0.33.
In the case of `CCCCCn1cc(C(=O)Cc2ccccc2F)c2ccccc21`, the Ki in assay [1] worked out at 39 nM; in assay [3], 23 nM. Further, the Ratio in assay [2] came out at 0.6.
For `CCCCCn1c(C)c(C(=O)Cc2ccccc2C)c2ccccc21` the same measures were 19 nM, 23 nM and 1.2.
In the case of `CCCCCn1cc(C(=O)Cc2ccccc2Br)c2ccccc21`, the Ki in assay [1] came to 20 nM; in assay [3] it was 8.4 nM. Also, the Ratio in assay [2] is 0.42.
Regarding `CCCCCn1c(C)c(C(=O)Cc2ccc(C)cc2)c2ccccc21`, the Ki in assay [1] was 1350 nM; in assay [3], 746 nM. Besides, the Ratio in assay [2] was 0.55.
In the case of `CCCCCn1c(C)c(C(=O)Cc2ccc(Br)cc2)c2ccccc21`, the Ki in assay [1] was determined as 2680 nM. Also, the Ratio in assay [2] came to 1.2.
Consider `CCCCCn1cc(C(=O)Cc2ccc(OC)cc2)c2ccccc21`, for which the Ki in assay [1] came out at 444 nM; in assay [3], 1060 nM. The Ratio in assay [2] was 2.4.
`CCCCCn1cc(C(=O)Cc2ccc(Br)cc2)c2ccccc21`: affinity in assay [1] was put at a Ki of 657 nM. For the same compound, the Ratio in assay [2] came out at 1.6.
As for `CCCCCn1cc(C(=O)Cc2ccccc2)c2ccccc21`, the Ki is 159 nM in assay [1] and 90 nM in assay [3]. Besides, the Ratio in assay [2] turned out to be 0.57.
On to `CCCCCn1cc(C(=O)Cc2cccc(OC)c2)c2ccccc21`, for which the Ki in assay [1] came to 89 nM; in assay [3], 17 nM. In assay [4], the Emax was 33.5%. Further, the EC50 amounted to 24.4 nM in assay [5] and 29.3 nM in assay [6]. For the same compound, the Ratio in assay [2] was found to be 0.19.
For `CCCCCn1c(C)c(C(=O)Cc2ccc(OC)cc2)c2ccccc21`, the results for the inhibition constant Ki in assay [1] and in assay [3] were 645 nM and 1680 nM, respectively. The Ratio in assay [2] is 2.6.

One may read the Ki as a dissociation constant, usually derived from enzyme kinetics or from competition with a known ligand. A word on the Emax: it is the size of the effect at its maximum, as opposed to the concentration needed. For orientation: EC50 means the concentration giving half of the maximal effect.
